Here are results for two compounds from ChEMBL document CHEMBL1124045, “Synthesis and antiviral evaluation of carbocyclic analogues of 2'-azido- and 2'-amino-2'-deoxycytidine” (1988).

Activity calls are given as the source filed them. The calls are words filed in the database; no cut-off is given here.

For test [1], the system named is Human alphaherpesvirus 1. Briefly: Antiviral activity in vitro against Herpes simplex virus type 1 (HSV-1); NA is not active uM. The test is classed as functional, organism-based.
The test system of test [2] is Human alphaherpesvirus 1. The test can be described thus: Antiviral activity in vitro against Herpes simplex virus type 1 (HSV-1). The test is classed as functional. Particulars: read-out: ED50 (the source's name).

In the case of `[N-]=[N+]=N[C@@H]1C(n2ccc(N)nc2=O)CC(CO)[C@@H]1O` (some centres not stated), the ED50 entry in the test with Human alphaherpesvirus 1 [1] is “inactive”.

As for `Nc1ccn(C2CC(CO)[C@H](O)[C@@H]2N)c(=O)n1` (some centres not stated), the EC50 in the test on Human alphaherpesvirus 1 [2] was 50 µM.
